Values after ≈ are worked out from the molar mass of the structure shown. Active and inactive are the calls of the source. The rule behind the calls is not given here.
How the values were obtained:
[1] = system: Mycobacterium tuberculosis; test: Antibacterial activity against Mycobacterium tuberculosis MTCC 300 after 7 days by resazurin microtiter assay; type: functional; settings: for MIC: MTCC 300, 168 h
[2] = Hemolytic activity in human erythrocytes after 1 hr; type: ADME, cell-based, Erythrocyte; settings: read-out: Activity

NNC(=O)c1ccncc1 [ISONIAZID]
MIC [1]: 0.48 µg/mL (≈ 3.5 µM)

NC(=S)N/N=C1\CSC(n2nc(-c3cn(-c4ccccc4)nc3-c3ccc(Br)cc3)c(O)c2-c2ccc(F)cc2)=N1
hemolysis at 1 h [2]: < 5%

NC(=S)N/N=C1\CSC(n2nc(-c3cn(-c4ccccc4)nc3-c3ccc([N+](=O)[O-])cc3)c(O)c2-c2ccc(Cl)cc2)=N1
growth inhibition (GI) [1]: Active | hemolysis at 1 h [2]: < 5%

NC(=S)N/N=C1\CSC(n2nc(-c3cn(-c4ccccc4)nc3-c3ccc(Br)cc3)c(O)c2-c2ccc(Cl)cc2)=N1
hemolysis at 1 h [2]: < 5%

NC(=S)N/N=C1\CSC(n2nc(-c3cn(-c4ccccc4)nc3-c3ccc([N+](=O)[O-])cc3)c(O)c2-c2cccc([N+](=O)[O-])c2)=N1
MIC [1]: 7.81 µg/mL (≈ 12.2 µM) | hemolysis at 1 h [2]: < 5%

NC(=S)N/N=C1\CSC(n2nc(-c3cn(-c4ccccc4)nc3-c3ccccc3)c(O)c2-c2ccccc2)=N1
growth inhibition (GI) [1]: Active | hemolysis at 1 h [2]: < 5%

NC(=S)N/N=C1\CSC(n2nc(-c3cn(-c4ccccc4)nc3-c3ccc(Cl)cc3)c(O)c2-c2ccc(Cl)cc2)=N1
MIC [1]: 62.5 µg/mL (≈ 101 µM) | hemolysis at 1 h [2]: < 5%

NC(=S)N/N=C1\CSC(n2nc(-c3cn(-c4ccccc4)nc3-c3ccc(Cl)cc3)c(O)c2-c2ccc([N+](=O)[O-])cc2)=N1
growth inhibition (GI) [1]: Active | hemolysis at 1 h [2]: < 5%

NC(=S)N/N=C1\CSC(n2nc(-c3cn(-c4ccccc4)nc3-c3ccc(Br)cc3)c(O)c2-c2ccc([N+](=O)[O-])cc2)=N1
hemolysis at 1 h [2]: < 5%

NC(=S)N/N=C1\CSC(n2nc(-c3cn(-c4ccccc4)nc3-c3ccc(Br)cc3)c(O)c2-c2cccc([N+](=O)[O-])c2)=N1
hemolysis at 1 h [2]: < 5%

NC(=S)N/N=C1\CSC(n2nc(-c3cn(-c4ccccc4)nc3-c3cccc([N+](=O)[O-])c3)c(O)c2-c2ccc(Cl)cc2)=N1
MIC [1]: 62.5 µg/mL (≈ 99.2 µM) | hemolysis at 1 h [2]: < 5%

NC(=S)N/N=C1\CSC(n2nc(-c3cn(-c4ccccc4)nc3-c3cccc([N+](=O)[O-])c3)c(O)c2-c2ccc([N+](=O)[O-])cc2)=N1
MIC [1]: 3.9 µg/mL (≈ 6.09 µM) | hemolysis at 1 h [2]: < 5%

NC(=S)N/N=C1\CSC(n2nc(-c3cn(-c4ccccc4)nc3-c3cccc([N+](=O)[O-])c3)c(O)c2-c2ccc(F)cc2)=N1
hemolysis at 1 h [2]: < 5%

NC(=S)N/N=C1\CSC(n2nc(-c3cn(-c4ccccc4)nc3-c3cccc([N+](=O)[O-])c3)c(O)c2-c2cccc([N+](=O)[O-])c2)=N1
MIC [1]: 3.9 µg/mL (≈ 6.09 µM) | hemolysis at 1 h [2]: < 5%

NC(=S)N/N=C1\CSC(n2nc(-c3cn(-c4ccccc4)nc3-c3ccc(Br)cc3)c(O)c2-c2ccc(Br)cc2)=N1
hemolysis at 1 h [2]: < 5%

NC(=S)N/N=C1\CSC(n2nc(-c3cn(-c4ccccc4)nc3-c3ccc(Cl)cc3)c(O)c2-c2ccc(F)cc2)=N1
growth inhibition (GI) [1]: Active | hemolysis at 1 h [2]: < 5%

NC(=S)N/N=C1\CSC(n2nc(-c3cn(-c4ccccc4)nc3-c3ccc([N+](=O)[O-])cc3)c(O)c2-c2ccc([N+](=O)[O-])cc2)=N1
MIC [1]: 62.5 µg/mL (≈ 97.6 µM) | hemolysis at 1 h [2]: < 5%

CO[C@H]1/C=C/O[C@@]2(C)Oc3c(C)c(O)c4c(O)c(c(/C=N/N5CCN(C)CC5)c(O)c4c3C2=O)NC(=O)/C(C)=C\C=C\[C@H](C)[C@H](O)[C@@H](C)[C@@H](O)[C@@H](C)[C@H](OC(C)=O)[C@@H]1C [RIFAMPIN]
MIC [1]: 0.24 µg/mL (≈ 0.292 µM)

NC(=S)N/N=C1\CSC(n2nc(-c3cn(-c4ccccc4)nc3-c3ccc(Cl)cc3)c(O)c2-c2ccccc2)=N1
growth inhibition (GI) [1]: Active | hemolysis at 1 h [2]: < 5%

NC(=S)N/N=C1\CSC(n2nc(-c3cn(-c4ccccc4)nc3-c3ccc([N+](=O)[O-])cc3)c(O)c2-c2ccc(F)cc2)=N1
growth inhibition (GI) [1]: Active | hemolysis at 1 h [2]: < 5%

— ChEMBL document CHEMBL3853261 (Medchemcomm, 2016)
